Experimental data as given in PubChem BioAssay (NCI).
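Protocol summary: plate cells (96-well), add compound at 5 concentrations, incubate 48 h, interpolate endpoints linearly. TGI: concentration producing complete growth inhibition.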

Key:
Experiment in all cases: DTP human tumour cell line panel, 48 h
786-0 renal = system: 786-0 renal
A498 renal = system: A498 renal
A549 NSCLC = system: A549 NSCLC
ACHN renal = system: ACHN renal
BT-549 breast = system: BT-549 breast
CAKI-1 renal = system: CAKI-1 renal
CCRF-CEM leukemia = system: CCRF-CEM leukemia
COLO 205 colon = system: COLO 205 colon
DU-145 prostate = system: DU-145 prostate
EKVX NSCLC = system: EKVX NSCLC
HCC-2998 colon = system: HCC-2998 colon
HCT-116 colon = system: HCT-116 colon
HCT-15 colon = system: HCT-15 colon
HL-60(TB) leukemia = system: HL-60(TB) leukemia
HOP-62 NSCLC = system: HOP-62 NSCLC
HOP-92 NSCLC = system: HOP-92 NSCLC
HT29 colon = system: HT29 colon
IGROV1 ovarian = system: IGROV1 ovarian
K-562 leukemia = system: K-562 leukemia
KM12 colon = system: KM12 colon
LOX IMVI melanoma = system: LOX IMVI melanoma
M14 melanoma = system: M14 melanoma
MALME-3M melanoma = system: MALME-3M melanoma
MCF7 breast = system: MCF7 breast
MDA-MB-231 breast = system: MDA-MB-231 breast
MDA-MB-435 = system: MDA-MB-435
MDA-N = system: MDA-N
MOLT-4 leukemia = system: MOLT-4 leukemia
NCI-H226 lung = system: NCI-H226 lung
NCI-H23 lung = system: NCI-H23 lung
NCI-H460 lung = system: NCI-H460 lung
NCI-H522 lung = system: NCI-H522 lung
NCI/ADR-RES ovarian = system: NCI/ADR-RES ovarian
OVCAR-3 ovarian = system: OVCAR-3 ovarian
OVCAR-4 ovarian = system: OVCAR-4 ovarian
OVCAR-5 ovarian = system: OVCAR-5 ovarian
OVCAR-8 ovarian = system: OVCAR-8 ovarian
PC-3 prostate = system: PC-3 prostate
RPMI-8226 leukemia = system: RPMI-8226 leukemia
RXF 393 renal = system: RXF 393 renal
SF-268 CNS = system: SF-268 CNS
SF-295 CNS = system: SF-295 CNS
SF-539 CNS = system: SF-539 CNS
SK-MEL-2 melanoma = system: SK-MEL-2 melanoma
SK-MEL-28 melanoma = system: SK-MEL-28 melanoma
SK-MEL-5 melanoma = system: SK-MEL-5 melanoma
SK-OV-3 ovarian = system: SK-OV-3 ovarian
SN12C renal = system: SN12C renal
SNB-19 CNS = system: SNB-19 CNS
SNB-75 CNS = system: SNB-75 CNS
SR leukemia = system: SR leukemia
SW-620 colon = system: SW-620 colon
T-47D breast = system: T-47D breast
TK-10 renal = system: TK-10 renal
U251 CNS = system: U251 CNS
UACC-257 melanoma = system: UACC-257 melanoma
UACC-62 melanoma = system: UACC-62 melanoma
UO-31 renal = system: UO-31 renal

CCCCCC(/C=C/C1CCC(=O)C1)OCOCCOC (stereo not drawn)
TGI (786-0 renal): 42.5 µM
TGI (A498 renal): 99.3 µM
TGI (A549 NSCLC): > 100 µM
TGI (ACHN renal): 58.6 µM
TGI (BT-549 breast): > 71 µM
TGI (CAKI-1 renal): > 76.9 µM
TGI (CCRF-CEM leukemia): > 92.2 µM
TGI (COLO 205 colon): > 100 µM
TGI (DU-145 prostate): > 100 µM
TGI (EKVX NSCLC): > 100 µM
TGI (HCC-2998 colon): > 100 µM
TGI (HCT-116 colon): > 73.6 µM
TGI (HCT-15 colon): > 100 µM
TGI (HL-60(TB) leukemia): > 100 µM
TGI (HOP-62 NSCLC): > 100 µM
TGI (HOP-92 NSCLC): 84.5 µM
TGI (HT29 colon): 67.5 µM
TGI (IGROV1 ovarian): > 100 µM
TGI (K-562 leukemia): > 86.7 µM
TGI (KM12 colon): > 100 µM
TGI (LOX IMVI melanoma): > 71 µM
TGI (M14 melanoma): > 100 µM
TGI (MALME-3M melanoma): > 100 µM
TGI (MCF7 breast): > 100 µM
TGI (MDA-MB-231 breast): > 100 µM
TGI (MDA-MB-435): > 100 µM
TGI (MDA-N): > 100 µM
TGI (MOLT-4 leukemia): 44.5 µM
TGI (NCI-H226 lung): > 100 µM
TGI (NCI-H23 lung): > 100 µM
TGI (NCI-H460 lung): > 100 µM
TGI (NCI-H522 lung): 36 µM
TGI (NCI/ADR-RES ovarian): 99.2 µM
TGI (OVCAR-3 ovarian): > 100 µM
TGI (OVCAR-4 ovarian): > 100 µM
TGI (OVCAR-5 ovarian): > 100 µM
TGI (OVCAR-8 ovarian): > 95.4 µM
TGI (PC-3 prostate): > 100 µM
TGI (RPMI-8226 leukemia): 60.3 µM
TGI (RXF 393 renal): > 100 µM
TGI (SF-268 CNS): > 71.7 µM
TGI (SF-295 CNS): > 100 µM
TGI (SF-539 CNS): 46.3 µM
TGI (SK-MEL-2 melanoma): > 100 µM
TGI (SK-MEL-28 melanoma): > 100 µM
TGI (SK-MEL-5 melanoma): > 100 µM
TGI (SK-OV-3 ovarian): > 100 µM
TGI (SN12C renal): > 100 µM
TGI (SNB-19 CNS): > 100 µM
TGI (SNB-75 CNS): 57.8 µM
TGI (SR leukemia): > 81.8 µM
TGI (SW-620 colon): > 81.8 µM
TGI (T-47D breast): > 100 µM
TGI (TK-10 renal): > 100 µM
TGI (U251 CNS): > 100 µM
TGI (UACC-257 melanoma): > 66.7 µM
TGI (UACC-62 melanoma): > 100 µM
TGI (UO-31 renal): 58.5 µM
